Assay results as given in patent US20240116985A1, “STAPLED PEPTIDES AND METHODS THEREOF” (priority 2020, published 2024).
Read-outs that look alike come from different tables or passages of the source.

Assays:
[1] = biological target: T1, full-length beta-Catenin (Uniprot ID P35222) (Homo sapiens, UniProt P35222); assay: Fluorescence polarization IC50 (beta-catenin / 5FAM-TCF4 10-53 competition); type: binding
T1 construct: 10 nM full-length beta-Catenin (Uniprot ID P35222)
T1 sequence (P35222 1-781): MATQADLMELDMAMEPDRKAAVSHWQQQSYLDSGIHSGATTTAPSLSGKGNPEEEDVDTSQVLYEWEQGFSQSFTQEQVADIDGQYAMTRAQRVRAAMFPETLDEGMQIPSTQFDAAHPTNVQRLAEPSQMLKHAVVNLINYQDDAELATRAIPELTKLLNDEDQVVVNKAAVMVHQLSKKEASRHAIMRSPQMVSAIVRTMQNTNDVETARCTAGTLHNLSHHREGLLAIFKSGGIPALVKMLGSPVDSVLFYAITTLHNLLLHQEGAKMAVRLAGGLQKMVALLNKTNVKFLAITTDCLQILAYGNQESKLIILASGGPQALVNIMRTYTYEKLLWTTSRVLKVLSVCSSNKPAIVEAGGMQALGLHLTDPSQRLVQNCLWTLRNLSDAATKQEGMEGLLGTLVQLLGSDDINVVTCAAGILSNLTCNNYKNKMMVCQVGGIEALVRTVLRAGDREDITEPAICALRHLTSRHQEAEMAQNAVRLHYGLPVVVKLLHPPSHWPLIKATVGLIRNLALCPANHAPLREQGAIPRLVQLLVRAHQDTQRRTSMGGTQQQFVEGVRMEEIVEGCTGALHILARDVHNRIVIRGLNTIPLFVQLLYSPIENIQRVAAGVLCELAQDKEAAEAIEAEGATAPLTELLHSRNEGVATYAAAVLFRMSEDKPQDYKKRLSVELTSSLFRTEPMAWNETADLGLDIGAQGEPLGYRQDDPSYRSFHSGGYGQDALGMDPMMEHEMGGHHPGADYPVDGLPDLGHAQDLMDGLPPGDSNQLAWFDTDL

[2] = biological target: T2, beta-catenin/TCF4 engagement (Homo sapiens, UniProt P35222); assay: Nano-BRET target engagement assay (B-cat-Halo & TCF4-Luc in HEK293 cells); type: cell-based
T2 construct: expressed in transfected cells; host or cells: HEK293
T2 sequence (P35222 1-781): T1 sequence (P35222 1-781)

[3] = fluorescence polarization, read-out: beta-Catenin FP IC50
[4] = absolute IC50, read-out: NanoBRET Abs IC50

Row | Structure (SMILES) | IC50 [1, 3] [nM] | IC50 [2, 4] [µM] | further results
1 | CCOC(=O)C[C@@H]1NC(=O)C2(CCCC=CCCCOC(=O)N3CC[C@@](C(=O)N[C@@H](Cc4ccsc4)C(=O)N[C@@H](Cc4csc5ccccc45)C(=O)N[C@@H](CCC(N)=O)C(N)=O)(C3)NC(=O)[C@H](CC(C)C)NC(=O)[C@H](Cc3ccccc3)NC(=O)[C@H](C)NC(=O)[C@H](C)NC(=O)[C@H](CC(=O)O)NC1=O)CCCC=CC[C@]1(CCCN1C(C)=O)C(=O)N[C@@H](CC(=O)O)C(=O)N[C@@H](CC(C)(C)C)C(=O)N2 (stereo partly drawn) [I-2357, Ac-PL3-Asp-Npg-B5-[Et]AspE-Asp-Ala-Ala-Phe-Leu-PyrS2-3Thi-BztA-Gln-NH2] | 6990 | > 20 | 
2 | CNC(=O)C[C@H](NC(=O)[C@H](Cc1csc2ccccc12)NC(=O)[C@H](Cc1ccsc1)NC(=O)[C@]12CCN(C1)C(=O)OCCCC=CCCCC1(CCCC=CC[C@]3(CCCN3C(C)=O)C(=O)N[C@@H](CC(=O)O)C(=O)N[C@@H](CC(C)(C)C)C(=O)N1)C(=O)N[C@@H](CC(N)=O)C(=O)N[C@@H]([C@@H](C)O)C(=O)NC(C)(C)C(=O)N[C@@H](C)C(=O)N[C@@H](Cc1ccccc1)C(=O)N[C@@H](CC(N)=O)C(=O)N2)C(N)=O (stereo partly drawn) [I-2495, Ac-PL3-Asp-Npg-B5-Asn-Thr-Aib-Ala-Phe-Asn-PyrS2-3Thi-BztA-MeAsn-NH2] | 95 | > 20 | 
3 | CC(=O)N1CCC[C@]12CC=CCCCC1(CCCC=CCCCOC(=O)N3CC[C@@](C(=O)N[C@@H](Cc4ccsc4)C(=O)N[C@@H](Cc4cccc(Br)c4)C(=O)N[C@@H](CCC(N)=O)C(N)=O)(C3)NC(=O)[C@H](CC(C)C)NC(=O)[C@H](Cc3ccccc3)NC(=O)[C@H](C)NC(=O)[C@H](C)NC(=O)[C@H](Cc3cccc(C(=O)O)c3)NC(=O)[C@H](CC(=O)O)NC1=O)NC(=O)[C@H](CC(C)(C)C)NC(=O)[C@H](CC(=O)O)NC2=O (stereo partly drawn) [I-2307, Ac-PL3-Asp-Npg-B5-Asp-3COOHF-Ala-Ala-Phe-Leu-PyrS2-3Thi-3BrF-Gln-NH2] | 16 | 8.9 | 
4 | CC(=O)N1CCC[C@]12CC=CCCCC1(CCCC=CCCCOC(=O)N3CC[C@@](C(=O)N[C@@H](Cc4ccccc4C(F)(F)F)C(=O)N[C@@H](Cc4csc5ccccc45)C(=O)N[C@@H](C)C(N)=O)(C3)NC(=O)[C@H](CC(C)C)NC(=O)[C@H](Cc3ccccc3)NC(=O)[C@H](C)NC(=O)[C@H]([C@@H](C)O)NC(=O)[C@H](Cc3cccc(C(=O)O)c3)NC(=O)[C@H](CC(=O)O)NC1=O)NC(=O)[C@H](CC(C)(C)C)NC(=O)[C@H](CC(=O)O)NC2=O (stereo partly drawn) [I-2060, Ac-PL3-Asp-Npg-B5-Asp-3COOHF-Thr-Ala-Phe-Leu-PyrS2-2F3MeF-BztA-Ala-NH2] | 56 |  | IC50 ([2]; read-out: NanoBRET Abs IC50): 9.6 µM
5 | CC(=O)N1CCC[C@]12CC=CCCCC1(CCCC=CCCCOC(=O)N3CC[C@@](C(=O)N[C@@H](Cc4ccsc4)C(=O)N[C@@H](Cc4csc5ccccc45)C(=O)N[C@@H](CCO)C(N)=O)(C3)NC(=O)[C@H](CC(C)C)NC(=O)[C@H](Cc3ccccc3)NC(=O)[C@H](C)NC(=O)[C@H](C)NC(=O)[C@H](CC(=O)O)NC(=O)[C@H](CC(=O)O)NC1=O)NC(=O)[C@H](CC1CCCCC1)NC(=O)[C@H](CC(=O)O)NC2=O (stereo partly drawn) [I-1520, Ac-PL3-Asp-Cha-B5-Asp-Asp-Ala-Ala-Phe-Leu-PyrS2-3Thi-BztA-Hse-NH2] | 11 | 17.4 | 
6 | CC(=O)N1CCC[C@]12CC=CCCCC1(CCCC=CCCCOC(=O)N3CC[C@@](C(=O)N[C@@H](Cc4ccsc4)C(=O)N[C@@H](Cc4csc5ccccc45)C(=O)N[C@@H](CC(C)C)C(N)=O)(C3)NC(=O)[C@H](CC(C)C)NC(=O)[C@H](Cc3ccccc3)NC(=O)[C@H](C)NC(=O)[C@H](C)NC(=O)[C@H](CC(=O)O)NC(=O)[C@H](CC(=O)O)NC1=O)NC(=O)[C@H](CO)NC(=O)[C@H](CC(=O)O)NC2=O (stereo partly drawn) [I-1414, Ac-PL3-Asp-Ser-B5-Asp-Asp-Ala-Ala-Phe-Leu-PyrS2-3Thi-BztA-Leu-NH2] |  |  | IC50 ([1]; beta-Catenin FP IC50, fluorescence polarization): 84 nM; IC50 ([2]; NanoBRET Abs IC50, absolute IC50): > 20 µM
7 | CC(=O)N1CCC[C@]12CC=CCCCC1(CCCC=CCCCOC(=O)N3CC[C@@](C(=O)N[C@@H](Cc4ccsc4)C(=O)N[C@@H](Cc4csc5ccccc45)C(=O)N[C@@H](CCC(N)=O)C(N)=O)(C3)NC(=O)[C@H](CC(C)C)NC(=O)[C@H](Cc3ccccc3)NC(=O)[C@H](C)NC(=O)[C@H](C)NC(=O)[C@H](CCN(CC(=O)O)C(=O)C3CCN(C)CC3)NC(=O)[C@H](CC(=O)O)NC1=O)NC(=O)[C@H](CC(C)(C)C)NC(=O)[C@H](CC(=O)O)NC2=O (stereo partly drawn) [I-2245, Ac-PL3-Asp-Npg-B5-Asp-[4AcMePip]GAbu-Ala-Ala-Phe-Leu-PyrS2-3Thi-BztA-Gln-NH2] | 26 | > 20 | 
8 | CC(=O)N1CCC[C@]12CC=CCCCC1(CCCC=CCCCOC(=O)N3CC[C@@](C(=O)N[C@@H](Cc4ccccc4Cl)C(=O)N[C@@H](Cc4csc5ccccc45)C(=O)N[C@@H](CCC(N)=O)C(N)=O)(C3)NC(=O)[C@H](CC(C)C)NC(=O)[C@H](Cc3ccccc3)NC(=O)[C@H](C)NC(=O)[C@H](C)NC(=O)[C@H](Cc3ccccc3C(=O)O)NC(=O)[C@H](CC(=O)O)NC1=O)NC(=O)[C@H](CC(C)(C)C)NC(=O)[C@H](CC(=O)O)NC2=O (stereo partly drawn) [I-1658, Ac-PL3-Asp-Npg-B5-Asp-2COOHF-Ala-Ala-Phe-Leu-PyrS2-2C1F-BztA-Gln-NH2] | 19 | 9.8 | 
9 | CC(=O)N1CCC[C@]12CC=CCCCC1(CCCC=CCCCOC(=O)N3CC[C@@](C(=O)N[C@@H](Cc4ccsc4)C(=O)N[C@@H](Cc4csc5ccccc45)C(=O)N[C@@H](CC(N)=O)C(=O)N[C@@H](CC(C)C)C(=O)N[C@@H](CC(C)C)C(=O)N[C@@H](CC(C)C)C(N)=O)(C3)NC(=O)[C@H](CC(C)C)NC(=O)[C@H](Cc3ccccc3)NC(=O)[C@H](C)NC(=O)[C@H](C)NC(=O)[C@H](Cc3cccc(C(=O)O)c3)NC(=O)[C@H](CC(=O)O)NC1=O)NC(=O)[C@H](CC(C)(C)C)NC(=O)[C@H](CC(=O)O)NC2=O (stereo partly drawn) [I-2275, Ac-PL3-Asp-Npg-B5-Asp-3COOHF-Ala-Ala-Phe-Leu-PyrS2-3Thi-BztA-Asn-Leu-Leu-Leu-NH2] | 117 | 3.5 | 
10 | CC(=O)N1CCC[C@]12CC=CCCCC1(CCCC=CCCCOC(=O)N3CC[C@@](C(=O)N[C@@H](Cc4ccsc4)C(=O)N[C@@H](Cc4csc5ccccc45)C(=O)N[C@@H](CCC(N)=O)C(N)=O)(C3)NC(=O)[C@H](CCC(=O)N3CCN(c4ccncc4)CC3)NC(=O)[C@H](Cc3ccccc3)NC(=O)[C@H](C)NC(=O)[C@H](C)NC(=O)[C@H](CN(CC(=O)O)CC(F)(F)F)NC(=O)[C@H](CC(=O)O)NC1=O)NC(=O)[C@H](CC(C)(C)C)NC(=O)[C@H](CC(=O)O)NC2=O (stereo partly drawn) [I-1938, Ac-PL3-Asp-Npg-B5-Asp-TfeGA-Ala-Ala-Phe-[4PyPip]GlnR-PyrS2-3Thi-BztA-Gln-NH2] |  |  | IC50 ([1]; beta-Catenin FP IC50 (nM), fluorescence polarization): 8 nM; IC50 ([2]; NanoBRET Abs IC50 (uM)): 30 µM
11 | CC(=O)N1CCC[C@]12CC=CCCCC1(CCCC=CCCCOC(=O)N3CC[C@@](C(=O)N[C@@H](Cc4ccsc4)C(=O)N[C@@H](Cc4csc5ccccc45)C(=O)N[C@@H](CCO)C(N)=O)(C3)NC(=O)[C@H](CC(C)C)NC(=O)[C@H](Cc3ccccc3)NC(=O)[C@H](C)NC(=O)[C@H](C)NC(=O)[C@H](CC(=O)O)NC(=O)[C@H](CC(=O)O)NC1=O)NC(=O)[C@H]([C@@H](C)O)NC(=O)[C@H](CC(=O)O)NC2=O (stereo partly drawn) [I-1516, Ac-PL3-Asp-Thr-B5-Asp-Asp-Ala-Ala-Phe-Leu-PyrS2-3Thi-BztA-Hse-NH2] | 30 | > 20 | 
12 | CC(=O)N1CCC[C@]12CC=CCCCC1(CCCC=CCCCOC(=O)N3CC[C@@](C(=O)N[C@@H](Cc4ccccc4Cl)C(=O)N[C@@H](Cc4csc5ccccc45)C(=O)N[C@@H](CO)C(=O)N4CCC[C@H]4CO)(C3)NC(=O)[C@H](CC(C)C)NC(=O)[C@H](Cc3ccccc3)NC(=O)[C@H](C)NC(=O)[C@H](C)NC(=O)[C@H](Cc3cccc(C(=O)O)c3)NC(=O)[C@H](CC(=O)O)NC1=O)NC(=O)[C@H](CC(C)(C)C)NC(=O)[C@H](CC(=O)O)NC2=O (stereo partly drawn) [I-1906, Ac-PL3-Asp-Npg-B5-Asp-3COOHF-Ala-Ala-Phe-Leu-PyrS2-2C1F-BztA-Ser-Prool] | 23 |  | IC50 ([2]; read-out: NanoBRET Abs IC50): 15.5 µM
13 | CC(=O)N1CCC[C@]12CC=CCCCC1(CCCC=CCCCOC(=O)N3CC[C@@](C(=O)N[C@@H](Cc4ccsc4)C(=O)N[C@@H](Cc4cccc5ccccc45)C(=O)N[C@@H](CO)C(N)=O)(C3)NC(=O)[C@H](CC(C)C)NC(=O)[C@H](Cc3ccccc3)NC(=O)[C@H](C)NC(=O)[C@H](C)NC(=O)[C@H](CC(=O)O)NC(=O)[C@H](CC(=O)O)NC1=O)NC(=O)[C@H](CC(C)(C)C)NC(=O)[C@H](CC(=O)O)NC2=O (stereo partly drawn) [I-1238, Ac-PL3-Asp-Npg-B5-Asp-Asp-Ala-Ala-Phe-Leu-PyrS2-3Thi-1NapA-Ser-NH2] | 44 | 23.1 | 
